The IC50 is the concentration that gives 50% inhibition. Low values mean greater potency, high ones weaker potency.

The subject of assay [1] is human lung cancer cells (A549). In words: MTT antiproliferative assay, A549. It is filed as cell-based. How it is done: (§1) Human lung cancer cell (A549,), human umbilical vein endothelial cells (HUVECs,), human colon cancer cell lines (HCT-15), human breast cancer cells (MCF-7), human liver cancer cells (HepG2), human pancreatic cancer cells (BxPC-3), and human hepatic cell line (L-02) were obtained from the Sichuan University. A549, HUVECs, and L-02 were cultured in DMEM medium (high glucose, HyClone, GE Healthcare, Sydney, Australia). Human colon cancer cell lines HCT-15, human pancreatic cancer cells […] BxPC-3 were cultured in RPMI-1640. Human breast cancer cells MCF-7 and human liver cancer cells HepG2 were cultured in MEM medium. All the mediums, including 10% fetal bovine serum (FBS, HyClone, GE Healthcare, Sydney, Australia) and 1% ampicillin/streptomycin, were used to culture the above cells at 37 °C in a humidified atmosphere (5% CO2 and 95% air).
(§2) The antiproliferative activity of the title compounds was determined using the MTT (3-(4,5-dimethylthiazol-2-yl)-2,5-diphenyltetrazolium bromide, Sigma-Aldrich, Saint Louis, MO, USA) assay on different cells. Cells lines were seeded into 96-well plates at a density of 2000 to 6000 cells/well. DMSO was used to dissolve the test compounds, and TET was used as a positive control. After 24 h, the test compounds were added at different concentrations (0.625, 1.25, 2.5, 5, 10, and 20 μM) and incubated at 37 °C for 72 h. MTT was added to each well at a final concentration of 0.5 mg/mL and incubated at 37 °C for 4 h. Then, 150 μL of DMSO was added to each well to dissolve the formazan crystals. The absorbance was measured at 570 nm by a microplate reader (ELX800UV, Bio-Tek, Windoski, VT, USA). All measurements were repeated at least three times under the same conditions. Graphpad Prism 8.0 was used to calculate the IC50 values.

For assay [2], the system named is human colon cancer cells (HCT-15). In words: MTT antiproliferative assay, HCT-15. It counts as cell-based. The protocol: as §1, §2
Assay [3] concerns HCT-15 cells. In words: Colony formation assay. It counts as cell-based, human. The settings on record: HCT-15, 0.625 μM, 10 d. How it is done:
HCT-15 cells were diluted in 2 mL of culture medium and plated in six-well plates at 37 °C in 5% CO2. After an overnight incubation, compound 16 (0.625, 1.25, 2.5, 5, and 10 μM) was added, and the cells were cultured for 10 d. Afterwards, the medium was replaced. The cells were washed by cold PBS and fixed with 4% paraformaldehyde. Finally, the cell colonies were stained with a 1% crystal violet solution for 20 min. The plates were recorded, and the colonies were counted digitally using ImageJ software with customized macros.

In assay [4] the test system is HCT-15 cells. In words: Transwell invasion assay. It is filed as cell-based, human. The conditions noted are these: HCT-15, transwell, 5 and 10 μM, 20 h. The protocol: The cell motility inhibitory effect of 16 on HCT-15 cells was evaluated by invasion assay. Briefly, cells were harvested and resuspended in serum-free medium that contained 0.625, 1.25, 2.5, 5, and 10 μM of 16, and were seeded into the upper wells of a transwell chamber (Millicell, […] pore size, 12-mm diameter Millipore) coated with 50 μL of Matrigel (1:3 dilution in serum-free medium, Corning/BD Biosciences) at a density of 2 × 10^5 cells/mL. Meanwhile, 600 μL medium containing 10% FBS and corresponding samples were added into the lower chambers. Then, 20 h later, the invading cells were fixed with 4% paraformaldehyde and stained with 0.2% crystal violet for 30 min. Afterwards, the chambers were washed twice with PBS and left to dry. Cells which had migrated to the lower chamber of the transwell were photographed using a digital camera with an inverted microscope (Nikon ECLIPSE TE2000-U, Tokyo, Japan), and the crystal violet positive cells were counted.

Assay [5] concerns HCT-15 cells. In words: Cell cycle analysis by flow cytometry. It counts as cell-based, human. The settings on record: HCT-15, 1.25, 2.5, and 5 μM, 24 h. The protocol: HCT-15 cells were cultured in six-well plates overnight at 37 °C. The cells were treated with 1.25, 2.5, 5 μM of 16 or DMSO and incubated for 24 h. Afterwards, the cells were harvested, and 70% ice cold ethanol was used to fix cells at 4 °C. Subsequently, the cells were centrifuged to remove the fixative solution, washed twice with PBS, and exposed to 500 μL of PI/RNase working solution (Keygen Biotech, Nanjing, China) at 4 °C for 30 min in the dark. The cell cycle distribution was analyzed by flow cytometry.

Assay [6] deals with p62/SQSTM1 (P62). Put plainly: Western blot, p62/SQSTM1 in HCT-15 cells. The conditions noted are these: HCT-15, 1.25, 2.5, and 5 μM, concentration-dependent, p < 0.05. It is filed as cell-based, human. The protocol: (§3) The protein levels in HCT-15 cells were evaluated via Western blot analysis. The cells were cultured in dishes (10^7 cells per dish) and incubated overnight at 37 °C, 0.625, 1.25, 2.5, and 5 μM of 16 was added in triplicate after 24 h of incubation. Then, the cells were harvested and lysed in Laemmli buffer (glycerol, 1M TRIS pH 6.8, 1% SDS, MQ H2O and 20% β-mercaptoethanol). The samples were boiled for 5 min at 95 °C, and the protein content was determined using a BCA kit. Equal amounts of 30 μg of sample were placed on a Tris/HCl gel and separated by SDS-PAGE electrophoresis. Then, the samples were transferred to a PVDF membrane (Milibo, Co., Ltd., Billyka, MA, USA) and blocked with 5% skimmed milk powder for 2 h. Diluted primary antibodies Bcl-2 (1:3000), Bax (1:10,000), caspase-3 (l:2000), p62 (1:1000), Beclin1 (1:1000), LC3 (1:2000), and β-actin (1:1000) were incubated overnight at 4 °C, followed by a horseradish peroxidase-conjugated goat anti-rabbit IgG secondary antibody (ProteinTech, China) for 2 h at room temperature. Then, immunoreactivity was developed with diaminobenzidine solution, and scanned and recorded by a gel imaging system (G:BOX Chemi XL1.4, Frederick, MD, USA).
In general terms: A western blot detects proteins with antibodies after separation by electrophoresis.

Assay [7] deals with microtubule-associated protein 1 light chain 3 (LC3). Put plainly: Western blot, LC3-II/LC3-I in HCT-15 cells. It counts as cell-based, human. The conditions noted are these: HCT-15, 0.625, 1.25, 2.5, and 5 μM, p < 0.05. The protocol:
as §3

Assay [8] concerns caspase-3. Put plainly: Western blot, caspase-3 in HCT-15 cells. The settings on record: HCT-15, 0.625, 1.25, and 2.5 μM, p < 0.05, no concentration dependence. It is filed as cell-based, human. How it is done:
as §3

The test system of assay [9] is HUVECs. In words: Tube formation assay on Matrigel. It is filed as cell-based, human. The settings on record: HUVEC on Matrigel, 5 μM, 8 h. How it is done:
Briefly, a 96-well plate was pre-coated with 50 μL Matrigel per well and incubated at 37 °C for 30 min. Then, 100 μL of HUVECs suspension (2 × 10^4) were added to each well. The cells were cultured with 1.25, 2.5, and 5 μM of 16 for 8 h. Subsequently, the tube formation was observed, randomly selected, and recorded by an inverted microscope.

On to `COc1cc(NC(=O)[C@@H]2CCCN2)c2cc1Oc1ccc(cc1)C[C@H]1c3cc(c(OC)cc3CCN1C)Oc1c(OC)c(OC)cc3c1[C@H](C2)N(C)CC3` [Compound 16, 14-N-(L-proline)-tetrandrine], for which the IC50 was 1.19 ± 0.01 µM in assay [1] (72 h); less than 1.5 µM in [1] (Homo sapiens, A549, 72 h); 0.57 ± 0.03 µM in [2] (Homo sapiens, MTT, 72 h, HCT-15). In assay [2] (HCT-15 cells, vs TET (IC50 = 6.12 μM)), the “Improvement of antiproliferative activity compared with TET” value is recorded as “higher than 10 fold”. The Colony formation entry in [3] is given as “very few colonies”. Moreover, in assay [4], the Invaded cells entry is “almost no cancer cells were observed”. The “Effect on cell cycle redistribution” value in assay [5] is recorded as “no significant influence on cell cycle redistribution”. In [6], the P62 contents result is “significantly lessened”. Besides, the “Ratio of LC3-II to LC3-I” value in [7] is listed as “increased”. Moreover, in [8], the Caspase-3 level result was “significantly decreased”. Further, the Tube formation entry in [9] is given as “almost no tube structure”.
